Assay results published in patent US6737438B2, “Substituted 1,2,4-trioxanes useful as antimalarial agents and a process for the preparation thereof” (Council of Scientific and Industrial Research, priority 2002, dated 2004).
Like-named read-outs stand apart in the source and are kept apart here.

Tested on: multidrug resistant strain of Plasmodium yoelii Nigeriensis
Assay: Antimalarial activity against multidrug resistant P. yoelii in swiss mice
Format: in vivo
Conditions: for % Suppression on Day 4 / inhibition in vivo at 96 mg/kg: 4 consecutive days (day 0-3), parasitaemia vs vehicle control; for Cured/treated: observed till day 28; for inhibition in vivo at 96 mg/kg / responders at 96 mg/kg: Plasmodium yoelii; for inhibition in vivo at 96 mg/kg: 96 h, read-out: % Suppression on Day 4; for responders at 96 mg/kg: 672 h, observed till day 28, read-out: Cured/treated (converted)

Compound	% Suppression on Day 4 (i.m., 96 mg/kg)	Cured/treated (i.m., 96 mg/kg)	% Suppression on Day 4 (oral, 96 mg/kg)	Cured/treated (oral, 96 mg/kg)	% Suppression on Day 4 (oral, 48 mg/kg)	Cured/treated (oral, 48 mg/kg)	inhibition in vivo at 96 mg/kg (oral, 96 mg/kg)	responders at 96 mg/kg (oral, 96 mg/kg)	inhibition in vivo at 96 mg/kg (im, i.m., 96 mg/kg)	responders at 96 mg/kg (im, i.m., 96 mg/kg)
8-[(4′-cyclooctylphenyl)vinyl]-6,7,10-trioxaspiro(4,5)undecane [Trioxane 7de]	57.4%	0/5	100%	3/5	–	–	–	–	–	–
C=C(c1ccc(C2CCCCC2)cc1)C1COC2(CCC(c3ccccc3)CC2)OO1 (mixture of isomers) [Trioxane 7be]	91.6%	0/5	–	–	100%	5/5	–	–	–	–
C(=CC1COC2(CCCC2)OO1)c1ccc(C2CCCC2)cc1 (stereo not shown) [Trioxane 7aa, 8-[(4′-Cyclopentylphenyl)vinyl]-6,7,10-trioxaspiro-[4,5]-decane]	100%	0/5	100%	5/5	–	–	–	–	–	–
C=C(c1ccc(C2CCCC2)cc1)C1COC2(CCC(c3ccccc3)CC2)OO1 (stereo not shown) [Trioxane 7ab]	77.56%	0/5	100%	0/5	–	–	–	–	–	–
C(=CC1COC2(CCCCC2)OO1)c1ccc(C2CCCC2)cc1 (stereo not shown) [Trioxane 7ac, 3-[(4′-cyclopentylphenyl)vinyl]-1,2,5-trioxaspiro(5,5)undecane]	84.94%	0/5	100%	5/5	–	–	–	–	–	–
C(=CC1COC2(CCCCCC2)OO1)c1ccc(C2CCCC2)cc1 (stereo not shown) [Trioxane 7ad]	48%	0/5	88.68%	0/5	–	–	–	–	–	–
C=C(c1ccc(C2CCCC2)cc1)C1COC2(CCC(C(C)(C)CC)CC2)OO1 (stereo not shown) [Trioxane 7ae]	43.58%	0/5	100%	0/5	–	–	–	–	–	–
C(=CC1COC(c2ccccc2)OO1)c1ccc(C2CCCCC2)cc1 (stereo not shown) [Trioxane 7bc, 6-[(4′-cyclohexylphenyl)vinyl]-3-phenyl-1,2,4-trioxane]	41.98%	0/5	95.64%	0/5	–	–	–	–	–	–
C(=CC1COC2(CCCCC2)OO1)c1ccc(C2CCCCC2)cc1 (stereo not shown) [Trioxane 7bd, 3-[(4′-Cyclohexylphenyl)vinyl]-1,2,5-trioxaspiro(5,5)undecane]	71.73%	0/5	100%	5/5	–	–	–	–	–	–
CCC1(C)OCC(C=Cc2ccc(C3CCCCC3)cc2)OO1 (stereo not shown) [Trioxane 7bf]	71.26%	0/5	100%	0/5	–	–	–	–	–	–
C(=CC1COC2(CCCC2)OO1)c1ccc(C2CCCCC2)cc1 (stereo not shown) [Trioxane 7bh, 8-[(4′-cyclohexylphenyl)vinyl]-6,7,10-trioxaspiro (4,5) decane]	100%	1/4	100%	4/4	–	–	–	–	–	–
C=C(c1ccc(C2CCCCC2)cc1)C1COC2(CCC(C(C)(C)CC)CC2)OO1 (stereo not shown) [Trioxane 7bi]	53.01%	0/5	100%	5/5	–	–	–	–	–	–
C(=CC1COC2(CCCCC2)OO1)c1ccc(C2CCCCCC2)cc1 (stereo not shown) [Trioxane 7ca, 3-[(4′-cycloheptylphenyl)vinyl]-1,2,5-trioxaspiro-[5,5]-undecane]	62.18%	0/5	100%	1/5	–	–	–	–	–	–
C=C(c1ccc(C2CCCCCC2)cc1)C1COC2(CCC(C(C)(C)CC)CC2)OO1 (stereo not shown) [Trioxane 7cb]	86.31%	0/5	100%	5/5	–	–	–	–	–	–
C=C(c1ccc(C2CCCCCC2)cc1)C1COC2(CCC(c3ccccc3)CC2)OO1 (stereo not shown) [Trioxane 7cd]	58.17%	0/5	100%	2/5	–	–	–	–	–	–
C(=CC1COC2(CCCCC2)OO1)c1ccc(C2CCCCCCC2)cc1 (stereo not shown) [Trioxane 7db, 3-[(4′-cyclooctylphenyl)vinyl]-1,2,5-trioxaspiro-(5,5)-undecane]	9.5%	0/5	100%	5/5	–	–	–	–	–	–
C=C(c1ccc(C2CCCCCCC2)cc1)C1COC2(CCC(c3ccccc3)CC2)OO1 (stereo not shown) [Trioxane 7dd]	73.81%	0/5	100%	4/5	–	–	–	–	–	–
C=C(c1ccc(C2CCCCCCC2)cc1)C1COC2(CCC(C(C)(C)CC)CC2)OO1 (stereo not shown) [Trioxane 7df]	0%	0/5	100%	3/5	–	–	–	–	–	–
C(=CC1COC2(CCCC2)OO1)c1ccc(-c2ccccc2)cc1 (stereo not shown) [Trioxane 7eb, 8-[([1,1′-biphenyl]-4yl)vinyl]-6,7,10-trioxaspiro (4,5) decane]	–	–	–	–	–	–	100%	0%	100%	100%
C(=CC1COC2(CCCCC2)OO1)c1ccc(-c2ccccc2)cc1 (stereo not shown) [Trioxane 7ec, 3-[([1,1′-biphenyl]-4yl)vinyl]-1,2,5-trioxaspiro (5,5) undecane]	–	–	–	–	–	–	100%	100%	100%	0%
C=C(c1ccc(-c2ccccc2)cc1)C1COC2(CCC(c3ccccc3)CC2)OO1 (stereo not shown) [Trioxane 7ef]	42.7%	0/5	100%	2/5	–	–	–	–	–	–
C=C(c1ccc(-c2ccccc2)cc1)C1COC2(CCC(C(C)(C)CC)CC2)OO1 (stereo not shown) [Trioxane 7eg]	87.6%	0/5	100%	3/5	–	–	–	–	–	–
C(=CC1COC2(CCCCCC2)OO1)c1ccc(-c2ccccc2)cc1 (stereo not shown) [Trioxane 7eh, 3[([1,1′-biphenyl]-4yl)vinyl]-1,2,5-trioxaspiro(5,6)dodecane]	–	–	–	–	–	–	100%	80%	92%	0%
CC1(C)OCC(C=Cc2ccc(-c3ccc(Br)cc3)cc2)OO1 (stereo not shown) [Trioxane 7fa, 3,3-Dimethyl-6-[(4′-bromo-[1,1′-biphenyl]-4-yl)-vinyl]-1,2,4-trioxane]	–	–	died	–	–	–	–	–	83.7%	0%
CCC1(C)OCC(C=Cc2ccc(-c3ccc(Br)cc3)cc2)OO1 (stereo not shown) [Trioxane 7fb, 3-Ethyl-3-methly-6-[(4′-bromo-[1,1′-biphenyl]-4-yl)-vinyl]-1,2,4-trioxane]	51.41%	0/5	100%	0/5	–	–	–	–	–	–
Brc1ccc(-c2ccc(C=CC3COC4(CCCCC4)OO3)cc2)cc1 (stereo not shown) [Trioxane 7fc, 3-[(4′-bromo-[1,1′-biphenyl]-4-yl)-vinyl]-1,2,5-trioxaspiro (5,5) undecane]	–	–	–	–	–	–	100%	100%	46.4%	20%
